Data reported in US12612412B2, “Antiviral heterocyclic compounds” (Enanta Pharmaceuticals, Inc., priority 2021, dated 2026).

Tests used:
[1] = system: genotype A, "Long" strain RSV; test: RSV-A assay (CPE protection in Hep-2 cells, ATPlite readout); format: cell-based, Human respiratory syncytial virus (HRSV); conditions: human respiratory syncytial virus, genotype A “Long” strain RSV, MOI 0.1, CPE protection, read-out: Human RSV-A (“Long”)
Procedure, shortened: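 Protection from RSV-induced cytopathic effect measured by ATP content (ATPlite) after 5-day culture. Infection used genotype A Long virus at MOI 0.1 on 8,000 Hep-2 cells per well, with compound serially diluted 2-fold; values are EC50.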

[2] = system: HMPV clinical isolate TN/1501/A1; test: HMPV antiviral assay Method-B (clinical isolate TN/1501/A1 in LLC-MK2 cells, ATP-Lite readout); format: cell-based, Human metapneumovirus (HMPV); conditions: human metapneumovirus, LLC-MK2, 144 h, hMPV WT1501 (clinical isolate TN/1501/A1), 6 days
Procedure: In vitro HMPV antiviral activity was evaluated using the clinical isolate TN/1501/A1 and LLC-MK2 cells (ATCC #CCL-7), an immortalized kidney epithelial cell line from Macaca mulatta. Compounds were resuspended in dimethyl sulfoxide (DMSO) at 10 mM and added to a 384-well source plate. The compounds were diluted and transferred onto 384-well assay plates using the Echo-650 automated liquid handling system (Beckman Coulter, Indiana). The test compounds were assessed in duplicate at a top concentration of 10 μM followed by 3-fold serial dilutions to give a total of 10 concentration points. DMSO control wells were also included on the assay plates and were either infected or not, acting as positive and negative controls. TN/1501/A1 virus infections were performed in-suspension with LLC-MK2 cells. The cells were washed twice with PBS and removed from the cell-culture flask with 0.25% trypsin-EDTA (Thermo Fisher Scientific, MA). The trypsin-EDTA was inactivated by resuspending in 2% fetal bovine serum (FBS) and OptiMEM (ThermoFisher Scientific, MA) containing 1% penicillin-streptomycin. Cells were pelleted by centrifuging for 5 minutes at 800 rpm, the supernatant was removed, and cells were suspended in PBS plus 100 μg/mL CaCl2). This step was performed twice. Cells were then resuspended in serum-free (SF)-OptiMEM containing 4 μg/mL TPCK-Trypsin (Sigma Aldrich, MO), 1% penicillin-streptomycin (ThermoFisher Scientific, MA) and 100 μg/mL CaCl2). Cells were counted and seeded at a density of 5,000 cells/well, 12.5 μL/well. Virus infections were done at a multiplicity of infection (MOI) of 0.014 with 12.5 μL added per well. SF-OptiMEM, 12.5 μL/well, was added to the appropriate wells to serve as a virus-free negative control for the assay. The final concentration of TPCK-trypsin was 2 μg/mL. Plates were incubated at 37° C., 5% CO2 for 6 days. After 6 days incubation, 12.5 μL of ATP-Lite (PerkinElmer, MA) was added to each well and the raw luminescence values were determined using the Envision 2104 (Perkin Elmer, MA). The average of the raw luminescence values for the cells and virus only positive control wells was subtracted from all conditions tested and the percent cell health was determined by dividing these values by the average of the cells only negative control wells. EC50 values were then calculated by non-linear regression using a four-parameter curve logistic equation. The curve fit model employed was XLFit Dose Response One Site Model 200: y=(A+(B/(1+((x/C)^D)))), where A is the minimum y value, B is the maximum y value, C is the log EC50 value, and D is the slope factor. […] EC50 ranges are as follows: A<0.5 μM; B>0.5 μM.

Structure (SMILES): COc1cc(C(=O)NC[C@](O)(c2cc3c(c(-c4ccc(F)c(F)c4F)n2)OC[C@]3(C)C(N)=O)C(F)(F)F)cc2cc(C(F)(F)F)cnc12 [Example 512]
- EC50 [1]: < 200 nM
- EC50 [2]: > 500 nM

Structure (SMILES): Cc1cnc2c(Cl)cc(C(=O)NC[C@](O)(c3cc4c(c(-c5ccc(F)c(F)c5F)n3)OC[C@]4(C)C(N)=O)C(F)(F)F)cc2c1 [Example 513]
- EC50 [1]: < 200 nM
- EC50 [2]: < 500 nM

Structure (SMILES): Cc1nc2c(OC3CC3)cc(C(=O)NC[C@](O)(c3cc4c(c(-c5ccc(F)c(F)c5F)n3)OC[C@]4(C)C(N)=O)C(F)(F)F)cc2cc1Cl [Example 514]
- EC50 [1]: < 200 nM
- EC50 [2]: < 500 nM

Structure (SMILES): Cc1cnc2c(OC(F)(F)F)cc(C(=O)NC[C@](O)(c3cc4c(c(-c5ccc(F)c(F)c5F)n3)OC[C@]4(C)C(N)=O)C(F)(F)F)cc2c1 [Example 515]
- EC50 [1]: < 200 nM
- EC50 [2]: < 500 nM

Structure (SMILES): COc1cc(C(=O)NC[C@](O)(c2cc3c(c(-c4ccc(F)cc4Cl)n2)OC[C@]3(C)C(N)=O)C(F)(F)F)cc2cc(C(F)(F)F)cnc12 [Example 516]
- EC50 [1]: < 200 nM
- EC50 [2]: > 500 nM

Structure (SMILES): Cc1cnc2c(Cl)cc(C(=O)NC[C@](O)(c3cc4c(c(-c5ccc(F)cc5Cl)n3)OC[C@]4(C)C(N)=O)C(F)(F)F)cc2c1 [Example 517]
- EC50 [1]: < 200 nM
- EC50 [2]: < 500 nM

Structure (SMILES): Cc1nc2c(OC3CC3)cc(C(=O)NC[C@](O)(c3cc4c(c(-c5ccc(F)cc5Cl)n3)OC[C@]4(C)C(N)=O)C(F)(F)F)cc2cc1Cl [Example 518]
- EC50 [1]: < 200 nM
- EC50 [2]: < 500 nM

Structure (SMILES): Cc1cnc2c(OC(F)(F)F)cc(C(=O)NC[C@](O)(c3cc4c(c(-c5ccc(F)cc5Cl)n3)OC[C@]4(C)C(N)=O)C(F)(F)F)cc2c1 [Example 519]
- EC50 [1]: < 200 nM
- EC50 [2]: > 500 nM

Structure (SMILES): COc1cc(C(=O)NC[C@](O)(c2cc3c(c(-c4ccc(F)c(F)c4F)n2)OC[C@]3(C)C(N)=O)C(F)(F)F)cc2cc(Br)cnc12 [Example 520]
- EC50 [1]: < 200 nM
- EC50 [2]: < 500 nM

Structure (SMILES): COc1cc(C(=O)NC[C@](O)(c2cc3c(c(-c4ccc(F)cc4Cl)n2)OC[C@]3(C)C(N)=O)C(F)(F)F)cc2cc(Br)cnc12 [Example 521]
- EC50 [1]: < 200 nM
- EC50 [2]: < 500 nM

Structure (SMILES): COc1cc(C(=O)NC[C@](O)(c2cc3c(c(-c4ccc(F)c(F)c4F)n2)OC[C@]3(C)C(N)=O)C(F)(F)F)cc2cn(C3(F)CC3)nc12 [Example 522]
- EC50 [1]: < 200 nM
- EC50 [2]: < 500 nM

Structure (SMILES): Cc1cnc2c(OC(F)F)cc(C(=O)NC[C@](O)(c3cc4c(c(-c5ccc(F)c(F)c5F)n3)OC[C@]4(C)C(N)=O)C(F)(F)F)cc2c1 [Example 523]
- EC50 [1]: < 200 nM
- EC50 [2]: < 500 nM

Structure (SMILES): Cc1cnc2c(OC(F)F)cc(C(=O)NC[C@](O)(c3cc4c(c(-c5ccc(F)cc5Cl)n3)OC[C@]4(C)C(N)=O)C(F)(F)F)cc2c1 [Example 524]
- EC50 [1]: < 200 nM
- EC50 [2]: < 500 nM

Structure (SMILES): COc1cc(C(=O)NC[C@](O)(c2cc3c(c(-c4ccc(F)c(F)c4F)n2)OC[C@]3(C)C(N)=O)C2CC2)cc2cn(C3CC3)nc12 [Example 525]
- EC50 [1]: < 200 nM
- EC50 [2]: < 500 nM

Structure (SMILES): COc1cc(C(=O)NC[C@](O)(c2cc3c(c(-c4ccc(F)c(F)c4F)n2)OC[C@]3(C)C(N)=O)C2CC2)cc2cc(Cl)c(C)nc12 [Example 526]
- EC50 [1]: < 200 nM
- EC50 [2]: < 500 nM

Structure (SMILES): Cc1cnc2c(OC(F)F)cc(C(=O)NC[C@](O)(c3cc4c(c(-c5ccc(F)c(F)c5F)n3)OC[C@]4(C)C(N)=O)C3CC3)cc2c1 [Example 527]
- EC50 [1]: < 200 nM
- EC50 [2]: < 500 nM

Structure (SMILES): COc1cc(C(=O)NC[C@](O)(c2cc3c(c(-c4ccc(F)c(F)c4F)n2)OC[C@]3(C)C(N)=O)C2CC2)cc2cn(C(F)F)nc12 [Example 528]
- EC50 [1]: < 200 nM
- EC50 [2]: < 500 nM

Structure (SMILES): COc1cc(C(=O)NC[C@](O)(c2cc3c(c(-c4ccc(F)cc4Cl)n2)OC[C@]3(C)C(N)=O)C(F)(F)F)cc2cn(C(F)F)nc12 [Example 529]
- EC50 [1]: < 200 nM
- EC50 [2]: < 500 nM

Structure (SMILES): Cc1nc2c(OC3CC3)cc(C(=O)NC[C@](O)(c3cc4c(c(-c5ccc(F)c(F)c5F)n3)OC[C@]4(C)C(N)=O)C3CC3)cc2cc1Cl [Example 530]
- EC50 [1]: < 200 nM
- EC50 [2]: < 500 nM

Structure (SMILES): Cc1cnc2c(Cl)cc(C(=O)NC[C@](O)(c3cc4c(c(-c5ccc(F)c(F)c5F)n3)OC[C@]4(C)C(N)=O)C3CC3)cc2c1 [Example 531]
- EC50 [1]: < 200 nM
- EC50 [2]: < 500 nM

Structure (SMILES): COc1cc(C(=O)NC[C@](O)(c2cc3c(c(-c4ccc(F)c(F)c4F)n2)OC[C@]3(C)C(N)=O)C2CC2)cc2cc(Br)cnc12 [Example 532]
- EC50 [1]: < 200 nM
- EC50 [2]: < 500 nM

Structure (SMILES): COc1cc(C(=O)NC[C@](O)(c2cc3c(c(-c4ccc(F)c(F)c4Cl)n2)OC[C@]3(C)C(N)=O)C2CC2)cc2cn(C3CC3)nc12 [Example 533]
- EC50 [1]: < 200 nM
- EC50 [2]: < 500 nM

Structure (SMILES): COc1cc(C(=O)NC[C@](O)(c2cc3c(c(-c4ccc(F)c(F)c4)n2)OC[C@]3(C)C(N)=O)C2CC2)cc2cn(C3CC3)nc12 [Example 534]
- EC50 [1]: < 200 nM
- EC50 [2]: < 500 nM

Structure (SMILES): COc1cc(C(=O)NC[C@](O)(c2cc3c(c(-c4cc(Cl)ccc4F)n2)OC[C@]3(C)C(N)=O)C2CC2)cc2cn(C3CC3)nc12 [Example 536]
- EC50 [1]: < 200 nM
- EC50 [2]: < 500 nM

Structure (SMILES): COc1cc(C(=O)NC[C@](O)(c2cc3c(c(-c4ccc(F)c(F)c4F)n2)OC[C@]3(C)C(N)=O)C2CC2)cc2cn(C3(F)CC3)nc12 [Example 537]
- EC50 [1]: < 200 nM
- EC50 [2]: < 500 nM

Structure (SMILES): Cc1cnc2c(OC(F)F)cc(C(=O)NC[C@](O)(c3cc4c(c(-c5ccc6c(c5)OC(F)(F)O6)n3)OC[C@]4(C)C(N)=O)C3CC3)cc2c1 [Example 538]
- EC50 [1]: < 200 nM
- EC50 [2]: < 500 nM

Structure (SMILES): Cc1cnc2c(Cl)cc(C(=O)NC[C@](O)(c3cc4c(c(-c5ccc6c(c5)OC(F)(F)O6)n3)OC[C@]4(C)C(N)=O)C3CC3)cc2c1 [Example 539]
- EC50 [1]: < 200 nM
- EC50 [2]: < 500 nM

Structure (SMILES): Cc1nc2c(OC3CC3)cc(C(=O)NC[C@](O)(c3cc4c(c(-c5ccc6c(c5)OC(F)(F)O6)n3)OC[C@]4(C)C(N)=O)C3CC3)cc2cc1Cl [Example 540]
- EC50 [1]: < 200 nM
- EC50 [2]: < 500 nM

Structure (SMILES): Cc1cnc2c(OCC(F)F)cc(C(=O)NC[C@](O)(c3cc4c(c(-c5ccc6c(c5)OC(F)(F)O6)n3)OC[C@]4(C)C(N)=O)C3CC3)cc2c1 [Example 541]
- EC50 [1]: < 200 nM
- EC50 [2]: < 500 nM

Structure (SMILES): Cc1cnc2c(OC(F)(F)F)cc(C(=O)NC[C@](O)(c3cc4c(c(-c5ccc6c(c5)OC(F)(F)O6)n3)OC[C@]4(C)C(N)=O)C3CC3)cc2c1 [Example 542]
- EC50 [1]: < 200 nM
- EC50 [2]: < 500 nM

Structure (SMILES): COc1cc(C(=O)NC[C@](O)(c2cc3c(c(-c4ccc5c(c4)OC(F)(F)O5)n2)OC[C@]3(C)C(N)=O)C2CC2)cc2cc(Br)cnc12 [Example 543]
- EC50 [1]: < 200 nM
- EC50 [2]: < 500 nM

Structure (SMILES): C[C@]1(C(N)=O)COc2c1cc([C@@](O)(CNC(=O)c1cc(F)c3nn(C4CC4)cc3c1)C(F)(F)F)nc2-c1ccc2c(c1)OC(F)(F)O2 [Example 544]
- EC50 [1]: < 200 nM
- EC50 [2]: < 500 nM

Structure (SMILES): C[C@]1(C(N)=O)COc2c1cc([C@@](O)(CNC(=O)c1cc(F)c3nn(C4CC4)cc3c1)C1CC1)nc2-c1ccc2c(c1)OC(F)(F)O2 [Example 545]
- EC50 [1]: < 200 nM
- EC50 [2]: < 500 nM

Structure (SMILES): C[C@]1(C(N)=O)COc2c1cc([C@@](O)(CNC(=O)c1cc(Cl)c3nn(C4CC4)cc3c1)C(F)(F)F)nc2-c1ccc2c(c1)OC(F)(F)O2 [Example 546]
- EC50 [1]: < 200 nM
- EC50 [2]: < 500 nM

Structure (SMILES): C[C@]1(C(N)=O)COc2c1cc([C@@](O)(CNC(=O)c1cc(Cl)c3nn(C4CC4)cc3c1)C1CC1)nc2-c1ccc2c(c1)OC(F)(F)O2 [Example 547]
- EC50 [1]: < 200 nM
- EC50 [2]: < 500 nM
